Measured values taken from ChEMBL document CHEMBL3044875, “Synthesis and antimicrobial activity of some bisoctahydroxanthene-1,8-dione derivatives” (2011).
The source made the active and inactive calls. The calls are words filed in the database; no cut-off is given here.

Tests used:
[1] = tested on: Rhodotorula mucilaginosa; experiment: Antifungal activity against Rhodotorula mucilaginosa at 100 U/disk after 48 hr by disk diffusion method; type: functional, organism-based
[2] = tested on: Bacillus cereus; experiment: Antibacterial activity against Bacillus cereus NRRL 3711 at 20 ug/disk after 24 hr by disk diffusion method; type: functional
[3] = tested on: Staphylococcus aureus; experiment: Antibacterial activity against Staphylococcus aureus ATCC 25923 at 40 ug/disc after 24 hr by disk diffusion method; type: functional
[4] = tested on: Escherichia coli; experiment: Antibacterial activity against Escherichia coli ATCC 25922 at 20 ug/disk after 24 hr by disk-diffusion method; type: functional
[5] = tested on: Aspergillus niger; experiment: Antifungal activity against Aspergillus niger ATCC 10949 at 140 ug/disk after 72 hr by disk diffusion method; type: functional; conditions: ATCC 10949, 72 h, read-out: DIZ
[6] = tested on: Candida albicans; experiment: Antifungal activity against Candida albicans ATCC 10231 at 40 ug/disk after 48 hr by disk-diffusion method; type: functional
[7] = tested on: Escherichia coli; experiment: Antibacterial activity against Escherichia coli ATCC 25922 at 40 ug/disk after 24 hr by disk-diffusion method; type: functional
[8] = tested on: Staphylococcus epidermidis; experiment: Antibacterial activity against Staphylococcus epidermidis ATCC 12228 at 140 ug/disk after 24 hr by disk diffusion method; type: functional
[9] = tested on: Proteus vulgaris; experiment: Antibacterial activity against Proteus vulgaris NRRL-B-123 at 140 ug/disk after 24 hr by disk diffusion method; type: functional, organism-based
[10] = tested on: Staphylococcus aureus; experiment: Antibacterial activity against Staphylococcus aureus ATCC 25923 at 20 ug/disc after 24 hr by disk diffusion method; type: functional
[11] = tested on: Pseudomonas aeruginosa; experiment: Antibacterial activity against Pseudomonas aeruginosa ATCC 27853 at 40 ug/disk after 24 hr by disk-diffusion method; type: functional, organism-based
[12] = tested on: Candida albicans; experiment: Antifungal activity against Candida albicans ATCC 10231 at 20 ug/disk after 48 hr by disk-diffusion method; type: functional
[13] = tested on: Nocardia; experiment: Antibacterial activity against Nocardia canis at 20 ug/disk after 24 hr by disk diffusion method; type: functional, organism-based
[14] = tested on: Pseudomonas aeruginosa; experiment: Antibacterial activity against Pseudomonas aeruginosa ATCC 27853 at 140 ug/disk after 24 hr by disk-diffusion method; type: functional, organism-based
[15] = tested on: Aspergillus niger; experiment: Antifungal activity against Aspergillus niger ATCC 10949 at 20 ug/disk after 72 hr by disk diffusion method; type: functional, organism-based
[16] = tested on: Rhodotorula mucilaginosa; experiment: Antifungal activity against Rhodotorula mucilaginosa at 140 ug/disk after 48 hr by disk diffusion method; type: functional
[17] = tested on: Staphylococcus epidermidis; experiment: Antibacterial activity against Staphylococcus epidermidis ATCC 12228 at 40 ug/disk after 24 hr by disk diffusion method; type: functional
[18] = tested on: Staphylococcus epidermidis; experiment: Antibacterial activity against Staphylococcus epidermidis ATCC 12228 at 20 ug/disk after 24 hr by disk diffusion method; type: functional, organism-based
[19] = tested on: Proteus vulgaris; experiment: Antibacterial activity against Proteus vulgaris NRRL-B-123 at 20 ug/disk after 24 hr by disk diffusion method; type: functional, organism-based
[20] = tested on: Candida albicans; experiment: Antifungal activity against Candida albicans ATCC 10231 at 140 ug/disk after 48 hr by disk-diffusion method; type: functional
[21] = tested on: Proteus vulgaris; experiment: Antibacterial activity against Proteus vulgaris NRRL-B-123 at 40 ug/disk after 24 hr by disk diffusion method; type: functional, organism-based
[22] = tested on: Nocardia; experiment: Antibacterial activity against Nocardia canis at 40 ug/disk after 24 hr by disk diffusion method; type: functional
[23] = tested on: Nocardia; experiment: Antibacterial activity against Nocardia canis at 140 ug/disk after 24 hr by disk diffusion method; type: functional
[24] = tested on: Staphylococcus aureus; experiment: Antibacterial activity against Staphylococcus aureus ATCC 25923 at 140 ug/disc after 24 hr by disk diffusion method; type: functional
[25] = tested on: Bacillus cereus; experiment: Antibacterial activity against Bacillus cereus NRRL 3711 at 40 ug/disk after 24 hr by disk diffusion method; type: functional
[26] = tested on: Pseudomonas aeruginosa; experiment: Antibacterial activity against Pseudomonas aeruginosa ATCC 27853 at 20 ug/disk after 24 hr by disk-diffusion method; type: functional, organism-based
[27] = tested on: Rhodotorula mucilaginosa; experiment: Antifungal activity against Rhodotorula mucilaginosa at 40 ug/disk after 48 hr by disk diffusion method; type: functional
[28] = tested on: Aspergillus niger; experiment: Antifungal activity against Aspergillus niger ATCC 10949 at 40 ug/disk after 72 hr by disk diffusion method; type: functional, organism-based
[29] = tested on: Escherichia coli; experiment: Antibacterial activity against Escherichia coli ATCC 25922 at 140 ug/disk after 24 hr by disk-diffusion method; type: functional
[30] = tested on: Rhodotorula mucilaginosa; experiment: Antifungal activity against Rhodotorula mucilaginosa at 20 ug/disk after 48 hr by disk diffusion method; type: functional
[31] = tested on: Bacillus cereus; experiment: Antibacterial activity against Bacillus cereus NRRL 3711 at 140 ug/disk after 24 hr by disk diffusion method; type: functional
[32] = ATCC 10231, 48 h, read-out: DIZ

## NYSTATIN
[1]
  inhibition zone (IZ): 21 mm

## COc1ccc(C2CC(=O)C3=C(C2)OC2=C(C(=O)CC(c4ccc(OC)c(OC)c4)C2)C3c2cccc(C3C4=C(CC(c5ccc(OC)c(OC)c5)CC4=O)OC4=C3C(=O)CC(c3ccc(OC)c(OC)c3)C4)c2)cc1OC (stereo unspecified)
[2]
  diameter of the inhibition zone (DIZ): inactive
[3]
  diameter of the inhibition zone (DIZ): inactive
[4]
  diameter of the inhibition zone (DIZ): inactive
[5]
  zone of inhibition at 140 µg/disc: 7 mm
[6]; [32]
  zone of inhibition at 40 µg/disc: 7 mm
[7]
  diameter of the inhibition zone (DIZ): inactive
[8]
  diameter of the inhibition zone (DIZ): inactive
[9]
  diameter of the inhibition zone (DIZ): inactive
[10]
  diameter of the inhibition zone (DIZ): inactive
[11]
  diameter of the inhibition zone (DIZ): inactive
[12]; [32]
  zone of inhibition at 20 µg/disc: 7 mm
[13]
  diameter of the inhibition zone (DIZ): inactive
[14]
  diameter of the inhibition zone (DIZ): inactive
[15]
  diameter of the inhibition zone (DIZ): inactive
[16]
  diameter of the inhibition zone (DIZ): inactive
[17]
  diameter of the inhibition zone (DIZ): inactive
[18]
  diameter of the inhibition zone (DIZ): inactive
[19]
  diameter of the inhibition zone (DIZ): inactive
[20]; [32]
  zone of inhibition at 140 µg/disc: 7 mm
[21]
  diameter of the inhibition zone (DIZ): inactive
[22]
  diameter of the inhibition zone (DIZ): inactive
[23]
  diameter of the inhibition zone (DIZ): inactive
[24]
  diameter of the inhibition zone (DIZ): inactive
[25]
  diameter of the inhibition zone (DIZ): inactive
[26]
  diameter of the inhibition zone (DIZ): inactive
[27]
  diameter of the inhibition zone (DIZ): inactive
[28]
  diameter of the inhibition zone (DIZ): inactive
[29]
  diameter of the inhibition zone (DIZ): inactive
[30]
  diameter of the inhibition zone (DIZ): inactive
[31]
  diameter of the inhibition zone (DIZ): inactive

## CC1(C)CCC2=C(C1=O)C(c1ccc(C3C4=C(CCC(C)(C)C4=O)OC4=C3C(=O)C(C)(C)CC4)cc1)C1=C(CCC(C)(C)C1=O)O2
[2]
  diameter of the inhibition zone (DIZ): inactive
[3]
  diameter of the inhibition zone (DIZ): inactive
[4]
  diameter of the inhibition zone (DIZ): inactive
[5]
  zone of inhibition at 140 µg/disc: 7 mm
[6]
  diameter of the inhibition zone (DIZ): inactive
[7]
  diameter of the inhibition zone (DIZ): inactive
[8]
  diameter of the inhibition zone (DIZ): inactive
[9]
  diameter of the inhibition zone (DIZ): inactive
[10]
  diameter of the inhibition zone (DIZ): inactive
[11]
  diameter of the inhibition zone (DIZ): inactive
[12]
  diameter of the inhibition zone (DIZ): inactive
[13]
  diameter of the inhibition zone (DIZ): inactive
[14]
  diameter of the inhibition zone (DIZ): inactive
[15]
  diameter of the inhibition zone (DIZ): inactive
[16]
  diameter of the inhibition zone (DIZ): inactive
[17]
  diameter of the inhibition zone (DIZ): inactive
[18]
  diameter of the inhibition zone (DIZ): inactive
[19]
  diameter of the inhibition zone (DIZ): inactive
[20]
  diameter of the inhibition zone (DIZ): inactive
[21]
  diameter of the inhibition zone (DIZ): inactive
[22]
  diameter of the inhibition zone (DIZ): inactive
[23]
  diameter of the inhibition zone (DIZ): inactive
[24]
  diameter of the inhibition zone (DIZ): inactive
[25]
  diameter of the inhibition zone (DIZ): inactive
[26]
  diameter of the inhibition zone (DIZ): inactive
[27]
  diameter of the inhibition zone (DIZ): inactive
[28]
  diameter of the inhibition zone (DIZ): inactive
[29]
  diameter of the inhibition zone (DIZ): inactive
[30]
  diameter of the inhibition zone (DIZ): inactive
[31]
  diameter of the inhibition zone (DIZ): inactive
